# According to PubChem BioAssay AID1259338 (Broad Institute, 2017):
# Activity calls are given as the source filed them.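 Rule for the calls: active = compounds lowering the signal with a fitted AC50 at or below a set concentration limit; inconclusive = flat curve with 30 to 70% inhibition, or a poor fit; inactive = the rest.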
# Biological target: Caspase recruitment domain-containing protein 9 (Homo sapiens) + E3 ubiquitin-protein ligase TRIM62 (Homo sapiens) (UniProt Q9H257+Q9BVG3)
# Experiment: disruptors of CARD9-TRIM62 binding, dose response, cell lysate, HEK293FT lysates, Luminex bead readout (AID 1259338); note: reference of the scale not given here
# Conditions: Luminex bead PPI, MFI, at 80 µM (top of the series)
# Sequence of Caspase recruitment domain-containing protein 9 (Homo sapiens) + E3 ubiquitin-protein ligase TRIM62 (Homo sapiens) (Q9BVG3 whole entry, looked up, the tested form may be a part): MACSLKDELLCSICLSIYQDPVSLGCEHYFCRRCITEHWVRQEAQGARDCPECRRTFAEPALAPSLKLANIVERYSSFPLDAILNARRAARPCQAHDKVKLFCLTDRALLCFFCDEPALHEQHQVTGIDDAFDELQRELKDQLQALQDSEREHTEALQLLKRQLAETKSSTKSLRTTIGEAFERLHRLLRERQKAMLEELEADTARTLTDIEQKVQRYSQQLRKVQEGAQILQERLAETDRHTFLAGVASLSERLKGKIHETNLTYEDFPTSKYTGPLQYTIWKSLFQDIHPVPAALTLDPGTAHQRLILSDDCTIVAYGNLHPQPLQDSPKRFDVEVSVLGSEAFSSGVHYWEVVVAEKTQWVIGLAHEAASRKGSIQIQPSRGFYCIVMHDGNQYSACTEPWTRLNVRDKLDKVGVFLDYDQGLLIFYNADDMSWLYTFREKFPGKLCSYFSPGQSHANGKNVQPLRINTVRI
# Sequence of Caspase recruitment domain-containing protein 9 (Homo sapiens) + E3 ubiquitin-protein ligase TRIM62 (Homo sapiens) (Q9H257 whole entry, looked up, the tested form may be a part): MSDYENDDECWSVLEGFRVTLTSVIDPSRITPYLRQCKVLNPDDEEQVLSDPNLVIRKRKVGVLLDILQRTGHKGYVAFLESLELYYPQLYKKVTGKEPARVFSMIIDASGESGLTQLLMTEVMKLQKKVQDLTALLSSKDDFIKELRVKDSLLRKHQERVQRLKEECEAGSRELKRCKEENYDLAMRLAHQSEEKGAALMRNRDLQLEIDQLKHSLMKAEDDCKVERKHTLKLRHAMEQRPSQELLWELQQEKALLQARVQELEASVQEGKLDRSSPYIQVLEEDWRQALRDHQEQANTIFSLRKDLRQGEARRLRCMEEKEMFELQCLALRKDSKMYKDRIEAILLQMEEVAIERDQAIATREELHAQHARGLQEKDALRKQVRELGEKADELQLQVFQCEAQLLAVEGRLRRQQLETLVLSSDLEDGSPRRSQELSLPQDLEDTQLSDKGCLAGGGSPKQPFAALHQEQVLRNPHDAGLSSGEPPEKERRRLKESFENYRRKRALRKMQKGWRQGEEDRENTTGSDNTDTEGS
row,Structure (SMILES),"activity change, negative = inhibition"
1,COc1ccc(CNC(=O)c2nc(Nc3ccc(C)cc3)c3ccccc3n2)cc1,inactive
2,Cc1nn2c(c1-c1ccccc1)NC(c1ccco1)=CC2c1ccco1 (centres undefined),inactive
3,Nc1c2c(nc3ccccc13)CCN(Cc1ccccc1)C2,inactive
4,CCOC(=O)c1[nH]c(Cc2[nH]c(C(=O)OCC)c(C)c2C)c(C)c1C,inactive
5,O=C(COC(=O)c1ccc(S(=O)(=O)NCc2ccco2)cc1)Nc1ccc(Cl)cn1,inactive
6,CN1C(=O)C(c2ccccc2[N+](=O)[O-])C(=O)c2ccccc21 (centres undefined),inactive
7,CN(Cc1ccco1)S(=O)(=O)c1nnc(NC(=O)c2ccccc2)s1,inactive
8,C[C@H](CO)N1C[C@H](C)[C@@H](CN(C)C(=O)C2CCCCC2)OCCCC[C@H](C)Oc2ccc(NS(C)(=O)=O)cc2C1=O,inactive
9,CCNc1ncc(C(=O)NCCc2nc3c(s2)CCCC3)cn1,inactive
10,Nc1ccccc1Sc1nccc(C(F)(F)F)n1,inactive
11,C(=N\n1cnnc1SCc1ccccc1)/c1ccco1,inactive
12,Cc1ccc(C2CC(=O)C3=C(C2)Nc2ccccc2NC3c2cccnc2)cc1 (centres undefined),inactive
13,Cc1cc(C)c2c(N)c(C(=O)Nc3cccc4ccccc34)sc2n1,inactive
14,O=C(O)c1ccccc1SC1CC(=O)N(Cc2ccccc2)C1=O (centres undefined),inactive
15,CCSCCNC(=O)c1cncc(Br)c1,inactive
16,Nc1cc2c(cc1O)CCCC2,inactive
17,O=C(O)CCc1ccc(-c2cccs2)n1NC(=O)c1ccco1,inactive
18,CCCOc1ccc(CCC(=O)O)cc1,inactive
19,CCOc1ccc(-n2c3nc4ccccc4nc3c3c(=O)n(Cc4ccco4)cnc32)cc1,inactive
20,Cc1occc1C(=O)NCc1cccc(CNC(=O)c2ccoc2C)c1,inactive
21,COC[C@]1(O)CCN(C(=O)CCN(C)S(C)(=O)=O)CC1(C)C,inactive
22,N#Cc1c(-c2ccco2)cc(-c2ccccn2)nc1N,inactive
23,O=C(Cc1cccs1)Nc1nnc(Cc2ccccc2)s1,inactive
24,Cc1ccc(-c2nc(C)sc2CC(=O)NCc2ccco2)cc1,inactive
25,COc1ccc(Nc2nc(-c3nnc(-c4ccc(F)cc4)o3)nc3ccccc23)cc1Cl,inactive

row,Structure (SMILES),"activity change, negative = inhibition"
1,Cc1ccc(-c2cc(C(=O)Nc3ccccn3)c3ccccc3n2)o1,inactive
2,Cc1ccc(Cc2cnc(N)s2)o1,inactive
3,CC1CCN(c2nc(-c3ccco3)c3c(c2C#N)CC(C)(C)OC3)CC1,inactive
4,O=C(NCc1ccco1)[C@@H]1CSC2c3ccccc3C(=O)N21 (some centres undefined),inactive
5,O=[N+]([O-])c1c(NCCCO)cc(SCc2ccco2)c2nonc12,inactive
6,O=C(COC(=O)CCC(=O)c1cccs1)NCc1ccco1,inactive
7,CCc1cc2c(=O)n(Cc3ccco3)c(SC)nc2s1,inactive
8,CC1Cc2ccccc2N1CC(=O)NC(=O)NC(C)(C)C (centres undefined),inactive
9,O=C(CCN1CCOCC1)c1ccc2c(c1)OCCO2,inactive
10,N#CCSc1nc2c(c(=O)n1Cc1ccco1)C1(CCCC1)Cc1ccccc1-2,inactive
11,O=S(=O)(Nc1nccs1)c1ccc(-n2cccc2)cc1,inactive
12,Cc1cccc(NC(=O)Cc2coc3ccc4ccccc4c23)n1,inactive
13,COc1ccc(-c2ccc(CCC(=O)O)o2)cc1,inactive
14,FC(F)(F)c1cc(Cl)c2nnc(C(F)(F)Cl)n2c1,inactive
15,O=C(O)COc1ccc(-n2cccc2)cc1,inactive
16,N#CNc1nc(O)cc(=O)[nH]1,inactive
17,COc1ccc(N2Cc3cccc(C(=O)NC(C)CCc4ccco4)c3C2=O)cc1 (centres undefined),inactive
18,O=c1oc(/C=C/c2ccc([N+](=O)[O-])s2)nc2ccccc12,inactive
19,Cc1noc(C)c1S(=O)(=O)Nc1ccc2c(c1)C(=O)N([C@H](C)CO)C[C@H](C)[C@@H](CN(C)CC1CCCCC1)OCCCC[C@H](C)O2,inactive
20,N#Cc1c(-c2ccco2)cc(-c2cccnc2)nc1N,inactive
21,CS(=O)(=O)N1CCN(c2ccc([N+](=O)[O-])c(SCc3ccco3)c2)CC1,inactive
22,Cc1ccc(C)n1NC(=O)c1ccccc1O,inactive
23,Cc1ccc(S(=O)(=O)Nc2ccc3c(c2)C(=O)N([C@H](C)CO)C[C@H](C)[C@@H](CN(C)CC2CCCCC2)OCCCC[C@H](C)O3)cc1,inactive
24,CCc1nc(OCc2ccco2)c2sc3nc4c(cc3c2n1)COC(C)(C)C4,inactive
